{"source": "ChEMBL document CHEMBL1201862", "about": "“PubChem BioAssay data set” (2004)", "key": {"[1]": {"target": "Photoreceptor-specific nuclear receptor (Homo sapiens, UniProt Q9Y5X4)", "test": "ligands suppressing NR2E3 nuclear receptor activity – biochemical, TR-FRET, dose response (AID 463256)", "type": "functional"}, "[2]": {"target": "Peroxisome proliferator-activated receptor gamma/Nuclear receptor corepressor 2 (Homo sapiens, UniProt P37231+Q9Y618)", "sequence (P37231 whole entry)": "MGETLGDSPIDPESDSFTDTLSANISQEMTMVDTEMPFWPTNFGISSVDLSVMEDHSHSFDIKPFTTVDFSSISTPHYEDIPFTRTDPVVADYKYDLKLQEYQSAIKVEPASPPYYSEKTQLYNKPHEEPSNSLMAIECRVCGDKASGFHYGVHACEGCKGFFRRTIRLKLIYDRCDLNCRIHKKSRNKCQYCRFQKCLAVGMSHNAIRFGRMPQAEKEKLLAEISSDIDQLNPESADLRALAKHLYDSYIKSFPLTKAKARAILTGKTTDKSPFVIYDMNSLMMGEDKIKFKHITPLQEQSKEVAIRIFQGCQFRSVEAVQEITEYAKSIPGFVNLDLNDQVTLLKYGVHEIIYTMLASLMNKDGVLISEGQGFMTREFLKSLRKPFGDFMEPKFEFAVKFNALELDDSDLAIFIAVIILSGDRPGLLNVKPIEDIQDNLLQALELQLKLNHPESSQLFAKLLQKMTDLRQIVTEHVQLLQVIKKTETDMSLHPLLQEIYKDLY", "sequence (Q9Y618 whole entry)": "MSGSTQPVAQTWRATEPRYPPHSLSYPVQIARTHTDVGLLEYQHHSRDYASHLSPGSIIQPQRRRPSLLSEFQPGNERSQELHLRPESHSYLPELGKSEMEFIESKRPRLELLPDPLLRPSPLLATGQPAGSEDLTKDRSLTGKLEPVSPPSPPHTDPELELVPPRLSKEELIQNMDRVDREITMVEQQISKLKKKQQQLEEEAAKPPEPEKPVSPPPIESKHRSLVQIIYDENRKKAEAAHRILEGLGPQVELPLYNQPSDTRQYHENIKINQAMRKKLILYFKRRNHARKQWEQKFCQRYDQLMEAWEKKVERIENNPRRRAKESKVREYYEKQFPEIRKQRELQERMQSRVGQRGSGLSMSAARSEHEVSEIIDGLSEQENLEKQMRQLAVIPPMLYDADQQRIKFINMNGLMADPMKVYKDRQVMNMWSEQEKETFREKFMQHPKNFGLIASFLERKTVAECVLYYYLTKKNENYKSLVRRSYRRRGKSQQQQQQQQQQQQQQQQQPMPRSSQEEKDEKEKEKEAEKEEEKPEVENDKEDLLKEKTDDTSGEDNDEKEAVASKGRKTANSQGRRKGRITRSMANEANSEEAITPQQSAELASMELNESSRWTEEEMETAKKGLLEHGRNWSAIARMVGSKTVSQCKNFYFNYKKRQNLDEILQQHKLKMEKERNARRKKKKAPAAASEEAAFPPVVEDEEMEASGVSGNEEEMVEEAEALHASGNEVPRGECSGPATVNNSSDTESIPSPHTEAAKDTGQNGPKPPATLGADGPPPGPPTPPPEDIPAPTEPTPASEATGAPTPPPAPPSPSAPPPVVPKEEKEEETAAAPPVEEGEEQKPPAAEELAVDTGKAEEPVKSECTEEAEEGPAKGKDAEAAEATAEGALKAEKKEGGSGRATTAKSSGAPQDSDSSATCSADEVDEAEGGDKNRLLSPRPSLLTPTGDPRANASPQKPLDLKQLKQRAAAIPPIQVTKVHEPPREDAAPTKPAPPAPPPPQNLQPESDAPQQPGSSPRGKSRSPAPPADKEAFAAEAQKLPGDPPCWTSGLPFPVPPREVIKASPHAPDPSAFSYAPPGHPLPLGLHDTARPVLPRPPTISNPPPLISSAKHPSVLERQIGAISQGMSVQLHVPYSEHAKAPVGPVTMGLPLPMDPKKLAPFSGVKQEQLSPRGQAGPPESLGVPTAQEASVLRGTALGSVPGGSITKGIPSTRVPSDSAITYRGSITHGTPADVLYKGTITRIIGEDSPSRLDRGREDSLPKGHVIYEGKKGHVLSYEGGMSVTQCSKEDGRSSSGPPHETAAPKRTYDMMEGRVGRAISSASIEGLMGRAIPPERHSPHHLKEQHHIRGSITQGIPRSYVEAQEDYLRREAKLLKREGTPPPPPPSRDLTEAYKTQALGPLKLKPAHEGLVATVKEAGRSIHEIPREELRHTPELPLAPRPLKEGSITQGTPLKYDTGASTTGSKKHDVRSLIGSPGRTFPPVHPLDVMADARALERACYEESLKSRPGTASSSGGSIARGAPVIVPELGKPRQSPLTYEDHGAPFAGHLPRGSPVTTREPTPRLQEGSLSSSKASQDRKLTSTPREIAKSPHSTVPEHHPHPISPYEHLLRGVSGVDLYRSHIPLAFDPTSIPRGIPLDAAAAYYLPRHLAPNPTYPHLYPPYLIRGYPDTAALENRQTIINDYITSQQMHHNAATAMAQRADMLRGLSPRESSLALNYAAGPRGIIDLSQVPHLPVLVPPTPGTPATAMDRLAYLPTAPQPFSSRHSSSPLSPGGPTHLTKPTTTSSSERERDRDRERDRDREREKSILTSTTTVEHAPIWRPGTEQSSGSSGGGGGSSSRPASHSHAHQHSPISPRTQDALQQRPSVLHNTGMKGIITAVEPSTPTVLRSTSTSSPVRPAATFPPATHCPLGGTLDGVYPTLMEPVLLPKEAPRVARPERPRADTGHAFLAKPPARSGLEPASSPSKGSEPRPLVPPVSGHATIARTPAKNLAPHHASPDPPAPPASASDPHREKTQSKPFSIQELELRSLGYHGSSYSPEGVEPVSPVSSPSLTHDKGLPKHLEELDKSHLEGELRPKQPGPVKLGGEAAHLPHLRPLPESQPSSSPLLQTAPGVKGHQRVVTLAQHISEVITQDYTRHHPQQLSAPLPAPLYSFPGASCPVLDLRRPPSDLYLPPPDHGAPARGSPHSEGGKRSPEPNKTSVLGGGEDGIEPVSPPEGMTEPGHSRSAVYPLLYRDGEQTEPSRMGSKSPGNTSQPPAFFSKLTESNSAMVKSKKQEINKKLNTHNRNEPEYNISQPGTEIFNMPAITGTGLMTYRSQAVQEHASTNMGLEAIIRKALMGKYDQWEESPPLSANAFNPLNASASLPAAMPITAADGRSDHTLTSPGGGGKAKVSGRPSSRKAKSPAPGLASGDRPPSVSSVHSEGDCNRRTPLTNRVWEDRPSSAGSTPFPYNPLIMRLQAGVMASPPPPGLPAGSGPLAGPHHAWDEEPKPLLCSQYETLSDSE", "test": "Counterscreen for NR2E3 inverse agonists: TR-FRET-based biochemical high throughput dose response assay to identify inverse agonists of the interaction between peroxisome proliferator-activated receptor gamma (PPARg) and nuclear receptor co-repressor 2 (NCOR2).", "type": "functional"}, "[3]": {"target": "T1, Tyrosine-protein phosphatase non-receptor type 7 (Homo sapiens, UniProt P35236)", "T1 sequence (P35236 whole entry)": "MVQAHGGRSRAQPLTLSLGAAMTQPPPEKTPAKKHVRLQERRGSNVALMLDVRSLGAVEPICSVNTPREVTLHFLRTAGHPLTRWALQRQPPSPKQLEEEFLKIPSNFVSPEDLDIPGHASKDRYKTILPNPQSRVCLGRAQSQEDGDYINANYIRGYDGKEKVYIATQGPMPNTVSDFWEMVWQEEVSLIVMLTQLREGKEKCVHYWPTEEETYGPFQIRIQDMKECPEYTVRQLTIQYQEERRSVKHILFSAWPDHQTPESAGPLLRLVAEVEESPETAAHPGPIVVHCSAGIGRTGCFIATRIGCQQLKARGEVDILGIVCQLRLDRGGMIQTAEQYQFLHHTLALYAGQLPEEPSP", "test": "HePTP tyrosine phosphatase activity blockers – biochemical, absorbance, leukemia target, primary screen (AID 521)", "type": "functional"}, "[4]": {"test": "RKO cell viability reduction, dose response, CellTiter-Glo luminescence (AID 1117322)", "type": "functional"}, "[5]": {"test": "rise of 2N DNA cells, HeLa – IC50, dose response (AID 1117349)", "type": "functional, cell-based"}, "[6]": {"test": "cytotoxicity toward HCT116 cells – cell-based, CellTiter-Glo luminescence, IC50, dose response (AID 1117332)", "type": "functional", "details": "HCT-116"}, "[7]": {"test": "Reduced DLD-1 viability, concentration-response, CellTiter-Glo luminescence (AID 1117352)", "type": "functional"}, "[8]": {"test": "rise of 4N DNA cells, HeLa – IC50, dose response (AID 1117351)", "type": "functional, cell-based"}, "[9]": {"test": "cytotoxicity toward Colo320 cells – cell-based, CellTiter-Glo luminescence, IC50, dose response (AID 1117334)", "type": "functional", "details": "COLO 320"}, "[10]": {"test": "SNU-C1 cell viability reduction, dose response, CellTiter-Glo luminescence (AID 1117323)", "type": "functional, cell-based"}, "[11]": {"test": "cytotoxicity toward HT-29 cells – cell-based, CellTiter-Glo luminescence, IC50, dose response (AID 1117330)", "type": "functional"}, "[12]": {"test": "CellTiter-Glo luminescence survival assay, SW480 colon tumor line, concentration-response curve, half-maximal inhibitory concentration (AID 1117338)", "type": "functional"}, "[13]": {"target": "Mitogen-activated protein kinase 10 (Homo sapiens, UniProt P53779)", "sequence (P53779 whole entry)": "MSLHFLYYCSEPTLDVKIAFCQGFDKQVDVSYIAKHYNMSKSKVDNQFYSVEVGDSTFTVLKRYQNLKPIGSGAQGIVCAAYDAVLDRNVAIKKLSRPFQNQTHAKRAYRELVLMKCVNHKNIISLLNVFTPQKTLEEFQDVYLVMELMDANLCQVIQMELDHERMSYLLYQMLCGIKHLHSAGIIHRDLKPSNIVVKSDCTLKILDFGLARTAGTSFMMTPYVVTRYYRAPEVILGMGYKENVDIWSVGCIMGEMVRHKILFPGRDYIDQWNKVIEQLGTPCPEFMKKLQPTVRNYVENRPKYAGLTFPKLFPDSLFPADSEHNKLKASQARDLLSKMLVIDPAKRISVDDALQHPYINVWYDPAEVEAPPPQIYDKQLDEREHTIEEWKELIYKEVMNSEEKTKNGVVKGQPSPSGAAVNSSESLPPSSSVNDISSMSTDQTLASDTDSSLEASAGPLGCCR", "test": "Dose response biochemical screening assay for inhibitors of c-Jun N-Terminal Kinase 3 (JNK3). [Related pubchem assays: 746 ]"}, "[14]": {"target": "Dual specificity tyrosine-phosphorylation-regulated kinase 1A (Rattus norvegicus, UniProt Q63470)", "type": "biochemical, Homo sapiens"}, "[15]": {"target": "T2, Short transient receptor potential channel 4 (Mus musculus, UniProt Q9QUQ5)", "T2 sequence (Q9QUQ5 whole entry)": "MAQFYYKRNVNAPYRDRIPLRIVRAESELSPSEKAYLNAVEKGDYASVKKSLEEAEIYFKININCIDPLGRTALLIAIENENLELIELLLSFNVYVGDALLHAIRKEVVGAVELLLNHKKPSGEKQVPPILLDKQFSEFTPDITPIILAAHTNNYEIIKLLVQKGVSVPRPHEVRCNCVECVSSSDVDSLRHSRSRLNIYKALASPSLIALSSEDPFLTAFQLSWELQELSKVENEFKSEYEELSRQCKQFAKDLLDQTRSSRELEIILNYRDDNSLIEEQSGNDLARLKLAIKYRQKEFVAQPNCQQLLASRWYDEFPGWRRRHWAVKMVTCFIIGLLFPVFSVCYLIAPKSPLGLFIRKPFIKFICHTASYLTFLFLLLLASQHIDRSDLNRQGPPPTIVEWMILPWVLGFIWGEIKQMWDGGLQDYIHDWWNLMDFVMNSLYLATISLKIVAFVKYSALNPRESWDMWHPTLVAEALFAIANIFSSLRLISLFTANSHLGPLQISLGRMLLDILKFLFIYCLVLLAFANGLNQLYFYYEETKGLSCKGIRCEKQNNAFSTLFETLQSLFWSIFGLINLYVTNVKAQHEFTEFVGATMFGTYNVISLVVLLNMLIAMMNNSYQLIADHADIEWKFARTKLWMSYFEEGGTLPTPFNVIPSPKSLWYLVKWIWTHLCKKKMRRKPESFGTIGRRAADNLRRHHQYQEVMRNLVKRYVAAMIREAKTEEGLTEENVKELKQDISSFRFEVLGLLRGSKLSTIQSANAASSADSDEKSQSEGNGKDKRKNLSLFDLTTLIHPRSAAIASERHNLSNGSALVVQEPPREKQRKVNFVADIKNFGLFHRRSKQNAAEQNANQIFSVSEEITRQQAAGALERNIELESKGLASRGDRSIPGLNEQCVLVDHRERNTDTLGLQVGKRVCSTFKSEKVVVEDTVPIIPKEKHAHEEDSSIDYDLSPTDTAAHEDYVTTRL", "test": "block of DAMGO-driven TRPC4 calcium entry – cell-based, HEK293 TRPC4/mu-opioid, Fluo-4 calcium, dose response (AID 434942);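 further: potency of inhibitors blocking the TRPC4 calcium response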", "type": "functional"}, "HEK293": {"test_system": "HEK293", "test": "EBV LMP1 TES2 canonical NF-kB signalling blockers – cell-based, HEK293, luciferase, cherry-pick, dose response (AID 588343)", "type": "functional", "details": "Homo sapiens"}, "[16]": {"target": "Protein-tyrosine kinase 2-beta (Homo sapiens, UniProt Q14289)", "sequence (Q14289 whole entry)": "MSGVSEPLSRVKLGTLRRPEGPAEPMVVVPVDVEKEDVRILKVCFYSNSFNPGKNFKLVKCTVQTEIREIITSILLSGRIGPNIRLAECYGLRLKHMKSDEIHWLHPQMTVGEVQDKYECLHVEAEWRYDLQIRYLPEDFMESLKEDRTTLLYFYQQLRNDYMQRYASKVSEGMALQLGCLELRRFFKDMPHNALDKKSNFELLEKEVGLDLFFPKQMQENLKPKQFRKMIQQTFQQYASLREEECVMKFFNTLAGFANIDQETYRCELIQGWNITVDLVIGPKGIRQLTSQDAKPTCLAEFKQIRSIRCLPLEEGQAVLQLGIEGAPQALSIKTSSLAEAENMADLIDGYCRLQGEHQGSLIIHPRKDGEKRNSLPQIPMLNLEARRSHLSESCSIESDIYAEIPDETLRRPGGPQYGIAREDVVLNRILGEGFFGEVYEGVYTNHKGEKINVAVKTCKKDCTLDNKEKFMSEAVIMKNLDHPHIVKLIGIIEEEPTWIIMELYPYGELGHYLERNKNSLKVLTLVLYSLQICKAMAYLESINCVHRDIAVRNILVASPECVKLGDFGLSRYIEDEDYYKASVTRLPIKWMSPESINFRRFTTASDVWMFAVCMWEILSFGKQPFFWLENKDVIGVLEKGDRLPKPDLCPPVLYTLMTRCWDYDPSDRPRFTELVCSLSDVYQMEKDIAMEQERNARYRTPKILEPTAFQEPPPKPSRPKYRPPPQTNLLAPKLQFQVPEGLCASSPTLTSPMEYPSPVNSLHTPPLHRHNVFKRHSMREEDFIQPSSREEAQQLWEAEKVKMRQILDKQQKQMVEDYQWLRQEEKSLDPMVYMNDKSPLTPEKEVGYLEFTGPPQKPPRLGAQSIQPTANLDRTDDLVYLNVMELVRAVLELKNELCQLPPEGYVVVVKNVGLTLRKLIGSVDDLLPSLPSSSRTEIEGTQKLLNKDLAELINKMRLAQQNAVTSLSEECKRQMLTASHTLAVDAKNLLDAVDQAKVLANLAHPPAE"}, "[17]": {"test": "NIH3T3 cell viability loss – ATP luminescence, mouse fibroblasts, counter-screen, dose response (AID 2010);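 further: cells exposed to compound for about 90 hours before reading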", "type": "functional, cell-based"}, "[18]": {"test": "Trypanosoma cruzi growth suppression in host cells – NIH3T3 host cells, beta-gal luminescence, confirmation (AID 2044);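 further: intracellular parasites grown in NIH/3T3 mouse fibroblasts as host cells; luminescent beta-galactosidase reporter signal from transgenic T. cruzi replicating inside host cells; inhibitors lower the luminescence signal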", "type": "functional, cell-based"}, "[19]": {"test": "toxicity to human hepatoma HepG2 cells – cell-based, cherry-picked samples, cytotoxicity control, dose response (AID 1159577)", "type": "functional"}, "[20]": {"test": "P. falciparum Dd2 growth inhibitors, dose response, SYBR Green, cherry-picked samples (AID 1159567)", "type": "functional, cell-based"}, "[21]": {"test": "inhibitors acting on PAX2 in cells – cell-based, plate reader, dry powder samples, selectivity assay for PAX8 inhibitor project, dose response (AID 743048);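 further: HEK293 cells carrying a WT1 promoter luciferase reporter driven by expressed Pax2; potency is for inhibition of Pax2 driven reporter signal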", "type": "functional"}, "[22]": {"test": "PAX5 cellular inhibition readout – cell-based, plate reader, dry powder samples, selectivity assay for PAX8 inhibitor project, dose response (AID 743047);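 further: HEK293 cells carrying a Pax5 driven CD19 promoter luciferase reporter; potency of inhibitors that lower reporter luminescence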", "type": "functional"}, "[23]": {"test": "PAX8-dependent cell viability loss – plate reader, dry powder, dose response (AID 743049)", "type": "functional, cell-based"}, "Paired box protein Pax-8": {"target": "Paired box protein Pax-8 (Homo sapiens, UniProt Q06710)", "sequence (Q06710 whole entry)": "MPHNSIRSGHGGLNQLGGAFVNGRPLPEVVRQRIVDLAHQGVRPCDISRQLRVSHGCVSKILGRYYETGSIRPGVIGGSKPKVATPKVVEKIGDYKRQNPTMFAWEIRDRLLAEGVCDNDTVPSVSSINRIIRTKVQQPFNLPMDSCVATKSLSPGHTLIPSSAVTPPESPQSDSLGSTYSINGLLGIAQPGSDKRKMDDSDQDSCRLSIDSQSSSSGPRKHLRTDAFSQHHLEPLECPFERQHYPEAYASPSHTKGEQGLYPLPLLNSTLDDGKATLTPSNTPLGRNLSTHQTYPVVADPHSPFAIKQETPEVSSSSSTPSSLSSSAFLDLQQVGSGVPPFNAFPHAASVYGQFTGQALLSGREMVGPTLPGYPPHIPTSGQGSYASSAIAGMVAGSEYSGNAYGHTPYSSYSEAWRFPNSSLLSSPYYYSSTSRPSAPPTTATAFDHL", "test": "PAX8 transcriptional activity inhibition in RMG-I – RMG-I cells, luciferase, cherry-pick, dose response (AID 687027);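 further: luciferase reporter driven by Pax8 target thyroperoxidase promoter measured by SteadyGlo luminescence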", "type": "functional, cell-based"}, "[24]": {"test": "COV362 cell viability loss – plate reader, dry powder, SA12, cytotoxicity control for PAX8 inhibitor project, dose response (AID 743144)", "type": "functional, cell-based"}, "[25]": {"test": "OV-90 cell viability loss – plate reader, dry powder, SA8, PAX8 inhibitor project, dose response (AID 743149)", "type": "functional, cell-based"}}, "note": "Calls of active or inactive are those of the source.", "data": [{"smiles": "CC(=O)c1sc(NS(=O)(=O)c2ccc(C)cc2)nc1-c1ccccc1", "values": [{"measurement": "IC50", "setting": "[1]", "value": "> 39.8 µM (not active)"}, {"measurement": "IC50", "setting": "[2]", "value": "> 39.8 µM (not active)"}]}, {"smiles": "COCC(=O)N1CCC(n2nnc3cc(F)ccc32)CC1", "values": [{"measurement": "IC50", "setting": "[3]", "value": "> 100 µM (not active)"}]}, {"smiles": "O=c1c(-c2ccccc2)c1-c1ccccc1", "note": "[DIPHENCYPRONE]", "values": [{"measurement": "IC50", "setting": "[4]", "value": "> 20 µM (inactive)"}, {"measurement": "IC50", "setting": "[5]", "value": "> 10 µM (inactive)"}, {"measurement": "IC50", "setting": "[6]", "value": "> 20 µM (inactive)"}, {"measurement": "IC50", "setting": "[7]", "value": "4.21 µM (active)"}, {"measurement": "IC50", "setting": "[8]", "value": "> 10 µM (inactive)"}, {"measurement": "IC50", "setting": "[9]", "value": "3.1 µM (active)"}, {"measurement": "IC50", "setting": "[10]", "value": "> 20 µM (inactive)"}, {"measurement": "IC50", "setting": "[11]", "value": "> 20 µM (inactive)"}, {"measurement": "IC50", "setting": "[12]", "value": "> 20 µM (inactive)"}]}, {"smiles": "COC(=O)c1cccc2c1-c1ccccc1/C2=N/O", "values": [{"measurement": "IC50", "setting": "[13]", "value": "8.81 µM (active)"}, {"measurement": "AC50", "setting": "[14]", "value": "0.434 µM (active)"}, {"measurement": "EC50", "setting": "[15]", "value": "2.99 µM (active)"}, {"measurement": "AC50", "setting": "HEK293", "value": "28 µM (active)"}, {"measurement": "IC50", "setting": "[16]", "value": "6.71 µM (active)"}]}, {"smiles": "CN1CCc2c(sc3c2c(=O)n(-c2ccccc2)c2nnc(SCc4ccc(Cl)cc4)n32)C1", "values": [{"measurement": "EC50", "setting": "cells", "value": "< 0.004 µM (active)"}, {"measurement": "EC50", "setting": "[17]", "value": "> 60 µM (not active)"}, {"measurement": "EC50", "setting": "[18]", "value": "< 0.1 µM (active)"}]}, {"smiles": "Cc1cccc(S(=O)(=O)N2CCCCN3[C@@H](CO)[C@@H](c4ccc(C#CC5CC5)cc4)[C@@H]3C2)c1", "values": [{"measurement": "AC50", "setting": "[19]", "value": "14.4 µM (active)"}, {"measurement": "AC50", "setting": "[20]", "value": "1.3 µM (active)"}]}, {"smiles": "N#C[C@H]1[C@@H](c2ccc(C#CC3CCCCC3)cc2)[C@@H](CO)N1S(=O)(=O)c1ccccc1", "values": [{"measurement": "AC50", "setting": "[21]", "value": "19 µM (active)"}, {"measurement": "AC50", "setting": "[22]", "value": "19.3 µM (active)"}, {"measurement": "AC50", "setting": "[23]", "value": "18.7 µM (active)"}, {"measurement": "AC50", "setting": "Paired box protein Pax-8", "value": "8.09 µM (active)"}, {"measurement": "AC50", "setting": "[24]", "value": "61.4 µM (active)"}, {"measurement": "AC50", "setting": "[20]", "value": "4.94 µM (active)"}, {"measurement": "AC50", "setting": "[25]", "value": "32.3 µM (active)"}]}]}
